In PubChem BioAssay AID1259408 (Genetic Toxicology Data Bank (GENE-TOX), 2018) one finds mutagenic call and call data, which are given here for 16 compounds.

Active and inactive are the calls of the source. The rule behind the calls is not given here.

The data set concerns GENE-TOX genotoxicity assays, various organisms and cells. Description: GENE-TOX mutagenicity studies. The conditions noted are these: for call: Assay Type: In vivo carcinogenicity studies. From the text:
GENE-TOX provides genetic toxicology (mutagenicity) test data from expert peer review of open scientific literature for more than 3,000 chemicals from the United States Environmental Protection Agency (EPA). GENE-TOX was established to select assay systems for evaluation, review data in the scientific literature, and recommend proper testing protocols and evaluation procedures for these systems.
GENE-TOX covers the years 1991 - 1998. It is no longer updated.
This is an archive assay for GENE-TOX mutagenicity studies.

The mark [1] stands for this setting: Species/Cell Type: Drosophila melanogaster, Assay Type: Sex-linked recessive lethal gene mutation, Assay Code: SRL+, Evaluation Type: Evaluation A (Pre-1980).
[2] abbreviates: Species/Cell Type: Human diploid fibroblasts, Assay Type: Unscheduled DNA synthesis (UDS) in vitro, DNA effects, Assay Code: UDH+, Evaluation Type: Evaluation A (Pre-1980).
Where [3] appears, read: Species/Cell Type: Nonhuman, Assay Code: CCG+, Evaluation Type: Evaluation A (Pre-1980).
Setting [4] is: Species/Cell Type: Nonhuman, Assay Type: Sister-chromatid exchange (SCE) in vitro, Assay Code: SC2+D, Dose Response: With dose response, Evaluation Type: Evaluation B (Post-1980).
Setting [5] is: Species/Cell Type: Human diploid fibroblasts, Assay Type: Unscheduled DNA synthesis (UDS) in vitro, DNA effects, Assay Code: UDH-, Evaluation Type: Evaluation A (Pre-1980).
Setting [6] is: Species/Cell Type: Saccharomyces cerevisiae, Assay Type: Mitotic recombination or gene conversion, Assay Code: YEH+, Evaluation Type: Evaluation A (Pre-1980).
Where [7] appears, read: Species/Cell Type: Saccharomyces cerevisiae, Assay Type: Mitotic recombination or gene conversion, Assay Code: YEC+, Evaluation Type: Evaluation A (Pre-1980).
The mark [8] stands for this setting: Species/Cell Type: Saccharomyces cerevisiae, Assay Type: Reverse gene mutation, Assay Code: YER+, Evaluation Type: Evaluation A (Pre-1980).
[9] abbreviates: Species/Cell Type: Mammalian polychromatic erythrocytes, Assay Type: Micronucleus test, chromosome aberrations, Assay Code: MNTT, Evaluation Type: Evaluation B (Post-1980).

With `BrCc1c2ccccc2cc2c1ccc1ccccc12`, the mutagenic call was “active; positive” (Species/Cell Type: Chinese hamster lung (V79) cells, Assay Type: Forward gene mutation at the HPRT or ouabain locus, Assay Code: V79+, Evaluation Type: Evaluation A (Pre-1980)); “active; positive” under setting [1]; “active; positive” (Species/Cell Type: Escherichia coli WP2, Assay Type: Tryptophan reverse gene mutation, Assay Code: WP2+D, Dose Response: With dose response, Evaluation Type: Evaluation A (Pre-1980)); “active; positive” (Species/Cell Type: Escherichia coli WP2 UVRA, Assay Type: Tryptophan reverse gene mutation, Assay Code: WPU+D, Dose Response: With dose response, Evaluation Type: Evaluation A (Pre-1980)); “active; positive” under setting [2]; “active; positive” under setting [4]. Moreover, for the setting “Species/Cell Type: Syrian hamster embryo (SHE) cells, Assay Type: Cell transformation, clonal assay, Assay Code: CTC-, Evaluation Type: Evaluation A (Pre-1980)”, the mutagenic call was “inactive; negative”. Moreover, the call under setting [3] was “active; positive”.

`CNP(=O)(N1CC1)N1CC1`: under setting [1], the mutagenic call was “active; positive”.

With `O=C1CCCCCN1`, the mutagenic call (Species/Cell Type: Chinese hamster ovary (CHO) cells, Assay Type: Forward gene mutation at the HPRT locus, Assay Code: CHO-, Evaluation Type: Evaluation B (Post-1980)) is “inactive; negative”. For the setting “Species/Cell Type: Nonhuman, Assay Code: CCG-, Evaluation Type: Evaluation A (Pre-1980)”, the call was “inactive; negative”.

Consider `Nc1ccc(-c2ccccc2)cc1`, for which the mutagenic call by setting is: (Species/Cell Type: Escherichia coli polA (W3110 vs P3478), Assay Type: Rec-assay, DNA effects (bacterial DNA repair), Assay Code: RE2+, Evaluation Type: Evaluation A (Pre-1980)) “active; positive”; (Species/Cell Type: Escherichia coli polA (W3119 vs P3478), Assay Type: Rec-assay, DNA effects (bacterial DNA repair), Assay Code: RE1T, Evaluation Type: Evaluation A (Pre-1980)) “no conclusion”; (Species/Cell Type: Fischer rat embryo (RLV/1706) cells, Assay Type: Cell transformation, viral enhanced, Assay Code: CTR+, Evaluation Type: Evaluation A (Pre-1980)) “active; positive”; under setting [5], “inactive; negative”; (Species/Cell Type: Mammalian polychromatic erythrocytes, Assay Type: Micronucleus test, chromosome aberrations, Assay Code: MNTT, Evaluation Type: Evaluation A (Pre-1980)) “no conclusion”; (Species/Cell Type: Mouse embryo (AKR/ME) cells, Assay Type: Cell transformation, Assay Code: CTK+, Evaluation Type: Evaluation A (Pre-1980)) “active; positive”. Moreover, the mutagenic call (Species/Cell Type: Nonhuman, Assay Type: Sister-chromatid exchange (SCE) in vivo, Assay Code: SC3+, Evaluation Type: Evaluation B (Post-1980)) is “active; positive”; the mutagenic call (Species/Cell Type: Rat primary hepatocytes, Assay Type: Unscheduled DNA synthesis (UDS) in vitro, DNA effects, Assay Code: UDP+, Evaluation Type: Evaluation A (Pre-1980)) was “active; positive”; the mutagenic call under setting [6] is “active; positive”; the mutagenic call (Species/Cell Type: Salmonella typhimurium (one or more of the five standard strains: TA98, TA100, TA1535, TA1537, and TA1538), Assay Type: Histidine reverse gene mutation, Ames assay, Assay Code: SAL+*, Activation: With metabolic activation, Evaluation Type: Evaluation A (Pre-1980)) is “active; positive”; the mutagenic call (Species/Cell Type: Salmonella typhimurium, Assay Type: Forward and reverse gene mutation, body fluid assay, Assay Code: BFU+, Evaluation Type: Evaluation A (Pre-1980)) was “active; positive”; the mutagenic call (Species/Cell Type: Salmonella typhimurium, Assay Type: Forward and reverse gene mutation, host-mediated assay, Assay Code: HMA+, Evaluation Type: Evaluation A (Pre-1980)) is “active; positive”. Besides, under “Species/Cell Type: Syrian hamster embryo (SHE) cells, Assay Type: Cell transformation, clonal assay, Assay Code: CTC+, Evaluation Type: Evaluation A (Pre-1980)”, the mutagenic call was “active; positive”. Under setting [3], the call was “active; positive”.

As for `Cc1c(N)nc(C(CC(N)=O)NCC(N)C(N)=O)nc1C(=O)NC(C(=O)NC(C)C(O)C(C)C(=O)NC(C(=O)NCCc1nc(-c2nc(C(=O)NCCC[S+](C)C)cs2)cs1)C(C)O)C(O[C@@H]1O[C@@H](CO)[C@@H](O)[C@H](O)[C@@H]1O[C@H]1O[C@H](CO)[C@@H](O)[C@H](OC(N)=O)[C@@H]1O)c1cnc[nH]1` (stereo partly specified), the mutagenic call (Species/Cell Type: Human lymphocytes, Assay Type: Sister-chromatid exchange (SCE) in vitro, Assay Code: SCLT, Evaluation Type: Evaluation B (Post-1980)) is reported as “no conclusion”; the mutagenic call (Species/Cell Type: Human, Assay Type: Sister-chromatid exchange (SCE) in vitro, Assay Code: SC1T, Evaluation Type: Evaluation B (Post-1980)) was “no conclusion”; the mutagenic call under setting [7] was “active; positive”; the mutagenic call under setting [6] was “active; positive”; the mutagenic call under setting [8] was “active; positive”.

Turning to `COCCc1ccc(OCC(O)CNC(C)C)cc1` (stereo unspecified), under setting [9], the mutagenic call is “no conclusion”.

`Nc1nc(N)nc(-c2ccc([N+](=O)[O-])o2)n1`: the mutagenic call (Species/Cell Type: Salmonella typhimurium (one or more of the five standard strains: TA98, TA100, TA1535, TA1537, and TA1538), Assay Type: Histidine reverse gene mutation, Ames assay, Assay Code: SAL+, Evaluation Type: Evaluation A (Pre-1980)) was “active; positive”.

With `CC(=O)N(O)c1ccc(-c2ccccc2)cc1`, the mutagenic call is “active; positive” under setting [2] and “active; positive” (Species/Cell Type: Nonhuman, Assay Type: Sister-chromatid exchange (SCE) in vitro, Assay Code: SC2+, Evaluation Type: Evaluation B (Post-1980)).

For `CCCCN(N=O)C(N)=O`, the mutagenic call is “active; positive” (Species/Cell Type: Arabidopsis species, Assay Type: Gene mutation, Assay Code: ARM+D, Dose Response: With dose response, Evaluation Type: Evaluation A (Pre-1980)); “active; positive” (Species/Cell Type: Chinese hamster ovary (CHO) cells, Assay Type: Forward gene mutation at the HPRT locus, Assay Code: CHO+D, Dose Response: With dose response, Evaluation Type: Evaluation A (Pre-1980)); “inactive; negative” under setting [5]; “active; positive” (Species/Cell Type: Nonhuman, Assay Type: Chromosome aberrations in vitro, Assay Code: CY&+D, Dose Response: With dose response, Evaluation Type: Evaluation A (Pre-1980)); “active; positive” (Species/Cell Type: Nonhuman, Assay Type: Sister-chromatid exchange (SCE) in vitro, Assay Code: SC2+D, Dose Response: With dose response, Evaluation Type: Evaluation A (Pre-1980)); “inactive; negative” (Species/Cell Type: Rodents, Sex: Male, Assay Type: Dominant lethal test, Assay Code: DLT-, Evaluation Type: Evaluation A (Pre-1980)). The mutagenic call by setting is: under setting [7], “active; positive”; (Species/Cell Type: Salmonella typhimurium, Escherichia coli, Serratia marcesens, Assay Type: Forward and reverse gene mutation, host-mediated assay, Assay Code: HMN+, Evaluation Type: Evaluation A (Pre-1980)) “active; positive”. Moreover, the call under setting [3] is “active; positive”.

In the case of `CCS(=O)(=O)OC`, the mutagenic call is “active; positive” (Species/Cell Type: Glycine max (soybean), Assay Type: Gene mutation, Assay Code: GLM+, Evaluation Type: Evaluation A (Pre-1980)); “active; positive” (Species/Cell Type: Hordeum vulgare (barley), Assay Type: Chromosome aberrations, Assay Code: HOC+, Evaluation Type: Evaluation A (Pre-1980)); “active; positive” (Species/Cell Type: Hordeum vulgare (barley), Assay Type: Gene mutation, Assay Code: HOM+D, Dose Response: With dose response, Evaluation Type: Evaluation A (Pre-1980)); “no conclusion” (Species/Cell Type: Rabbit, Sex: Male, Assay Type: Sperm morphology, Assay Code: SPRT, Evaluation Type: Evaluation A (Pre-1980)).

As for `Cl/C=C(\Cl)C(Cl)Cl`, the mutagenic call under setting [4] was “active; positive”.

With `[Se]`, the mutagenic call (Species/Cell Type: Human lymphocytes, Assay Type: Sister-chromatid exchange (SCE) in vitro, Assay Code: SCL+D, Dose Response: With dose response, Evaluation Type: Evaluation B (Post-1980)) was “active; positive” and the mutagenic call (Species/Cell Type: Human, Assay Type: Sister-chromatid exchange (SCE) in vitro, Assay Code: SC1+D, Dose Response: With dose response, Evaluation Type: Evaluation B (Post-1980)) is “active; positive”.

In the case of `NCCc1ccc(O)c(O)c1`, the mutagenic call is “inactive; negative” (Species/Cell Type: Human lymphocytes, Assay Type: Sister-chromatid exchange (SCE) in vitro, Assay Code: SCL-, Evaluation Type: Evaluation B (Post-1980)); “inactive; negative” (Species/Cell Type: Human, Assay Type: Sister-chromatid exchange (SCE) in vitro, Assay Code: SC1-, Evaluation Type: Evaluation B (Post-1980)); “inactive; negative” (Species/Cell Type: Mammalian polychromatic erythrocytes, Assay Type: Micronucleus test, chromosome aberrations, Assay Code: MNT-, Evaluation Type: Evaluation B (Post-1980)).

Consider `Cc1ccc2c(c1O)N[C@H](O)[C@@H]1CC(/C=C/C(N)=O)=CN1C2=O`, for which the mutagenic call under setting [9] is reported as “no conclusion”; the mutagenic call under setting [4] is “active; positive”; the mutagenic call under setting [7] was “active; positive”; the mutagenic call under setting [6] is “active; positive”; the mutagenic call under setting [8] was “active; positive”; the mutagenic call (Species/Cell Type: Salmonella typhimurium (one or more of the five standard strains: TA98, TA100, TA1535, TA1537, and TA1538), Assay Type: Histidine reverse gene mutation, Ames assay, Assay Code: SALT, Evaluation Type: Evaluation A (Pre-1980)) is recorded as “no conclusion”.

Take `C[C@@H]1CCCCN1N=O`: the call under setting [3] was “active; positive”.

Take `CCCCCCC(=O)N(C)N=O`: the mutagenic call under setting [8] was “active; positive”.
